The record followed here is patent publication EP1144368B1, “ACETYLENIC ALPHA-AMINO ACID-BASED SULFONAMIDE HYDROXAMIC ACID TACE INHIBITORS” (priority 1999, dated 2000).

This test relates to THP-1 cells. Kind of test: THP-1 Soluble Protein Assay (LPS-stimulated; ELISA of TNF-a, TNF-R p75/80, TNF-R p55/60, IL-8). The format is cell-based, human. As to conditions: Homo sapiens.
Setting [1] is: THP-1, read-out: THP % inhibition @ 3 µM, 3 µM.
Setting [2] is: THP-1, 3 µM, read-out: THP % Inhibition @ 3µM.

Structures can show the parent of a compound that is named as a salt. Where two headings read alike, the source gives them in different places.

The term inhibition denotes the share of the control response that was lost under treatment. In the case of `CC#CCOc1ccc(S(=O)(=O)N(C)C2(C(=O)NO)CCCCC2)cc1` [Example 136, 1-[{[4-(2-Butynyloxy)phenyl]sulfonyl}(methyl)amino] -N-hydroxycyclohexanecarboxamide], under setting [1], the inhibition at 3 µM came out at 0%.

`CC#CCOc1ccc(S(=O)(=O)N2CCN(C(=O)N3CCCC3)CC2C(=O)NO)cc1` (stereo not shown) [Example 217, 1-(4-But-2-ynyloxy-benzenesulfonyl)-4-(pyrrolidine-1-carbonyl)-piperazine-2-carboxylic acid hydroxyamide]: under setting [1], the inhibition at 3 µM came out at 73%.

Turning to `CC#CCOc1ccc(S(=O)(=O)N2CCN(C(=O)N(C)c3ccccc3)CC2C(=O)NO)cc1` (stereo not shown) [Example 220, 4-(4-But-2-ynyloxy-benzenesulfonyl)-piperazine-1,3-dicarboxylic acid 3-hydroxyamide 1-(methyl-phenyl-amide)], the inhibition at 3 µM under setting [1] was determined as 60%.

As for `CC#CCOc1ccc(S(=O)(=O)N2CC[S+]([O-])C(C)(C)C2C(=O)NO)cc1` (single isomer, unassigned) [Example 256], the inhibition at 3 µM under setting [1] is 92%.

Regarding `CC#CCOc1ccc(S(=O)(=O)N(C)C(C(=O)NO)c2ccc(OCCN3CCCC3)cc2)cc1` (stereo not shown) [Example 183, 2-[{[4-(2-Butynyloxy)phenyl]sulfonyl}(methyl)amino]-N-hydroxy-2-{4-[2-(1-pyrrolidinyl)ethoxy]phenyl}acetamide], the inhibition at 3 µM under setting [1] turned out to be 93%.

Regarding `CC#CCOc1ccc(S(=O)(=O)N(C)C(C(=O)NO)c2ccc(OCCNC(=O)OC(C)(C)C)cc2)cc1` (stereo not shown) [Example 180, tert-Butyl 2-{4-[1-[{[4-(2-butynyloxy)phenyl]sulfonyl}(methyl)amino]-2-(hydroxyamino)-2-oxoethyl]phenoxy}ethylcarbamate], under setting [1], the inhibition at 3 µM was 89%.

As to `CC#CCOc1ccc(S(=O)(=O)N2CCN(C(=O)N(C(C)C)C(C)C)CC2C(=O)NO)cc1` (stereo not shown) [Example 218, 4-(4-But-2-ynyloxy-benzenesulfonyl)-piperazine-1,3-dicarboxylic acid 1-diisopropylamide 3-hydroxyamide], under setting [1], the inhibition at 3 µM was 56%.

Take `CC#CCOc1ccc(S(=O)(=O)N(CCCCN(CC)CC)C(C(=O)NO)C(C)C)cc1` (stereo not shown) [Example 121, 2-{{[4-(2-Butynyloxy)phenyl]sulfonyl}[4-(diethylamino)butyl]amino}-N-hydroxy-3-methylbutanamide]: the inhibition at 3 µM under setting [1] amounted to 65%.

With `CC#CCOc1ccc(S(=O)(=O)N2CCN(C(=O)Nc3cc(Cl)cc(Cl)c3)CC2C(=O)NO)cc1` (stereo not shown) [Example 223, 4-{[4-(2-Butynyloxy)phenyl]sulfonyl}-N-1-(3,5-dichlorophenyl)-N-3-hydroxy-1,3-piperazinedicarboxamide], the inhibition at 3 µM under setting [1] came to 42%.

Take `CC#CCOc1ccc(S(=O)(=O)N(C)C(C(=O)NO)c2ccc(OCCN3CCCC3=O)cc2)cc1` (stereo not shown) [Example 184, 2-[{[4-(2-Butynyloxy)phenyl]sulfonyl}(methyl)amino]-N-hydroxy-2-{4-[2-(2-oxo-1-pyrrolidinyl)ethoxy]phenyl}acetamide]: the inhibition at 3 µM under setting [1] stood at 94%.

For `CC#CCOc1ccc(S(=O)(=O)N(Cc2cccnc2)C(C)C(=O)NO)cc1` (stereo not shown) [Example 33, 2-[(4-But-2-ynyloxy-benzenesulfonyl)-pyridin-3-ylmethyl-amino]-N-hydroxy-propionamide hydrochloride], the inhibition at 3 µM under setting [1] was determined as 80%.

With `CC#CCOc1ccc(S(=O)(=O)N2C[C@H](C)SC(C)(C)[C@@H]2C(=O)NO)cc1` [Example 272, (3S,6S)-4-{[4-(2-Butynyloxy)phenyl]sulfonyl}-N-hydroxy-2,2,6-trimethyl-3-thiomorpholinecarboxamide], the inhibition at 3 µM under setting [2] came to 92%.

For the compound `CC(=O)OCC#CCOc1ccc(S(=O)(=O)N2CCSC(C)(C)[C@@H]2C(=O)NO)cc1` [Example 261, 4-[4-({(3S)-3-[(Hydroxyamino)carbonyl]-2,2-dimethylthiomorpholinyl}suffonyl)phenoxy]-2-butynyl acetate], the inhibition at 3 µM under setting [1] came out at 92%.

`CC#CCOc1ccc(S(=O)(=O)N(C)C(C(=O)NO)C(C)(C)SCCN2CCCC2)cc1` (stereo not shown) [Example 143, 2-({[4-(2-Butynyloxy)phenyl]sulfonyl)(methyl)amino]-N-hydroxy-3-methyl-3-{[2(1-pyrrolidinyl)ethyl]sulfanyl}butanamide]: under setting [1], the inhibition at 3 µM was found to be 86%.

For `CC#CCOc1ccc(S(=O)(=O)N2Cc3ccccc3CC2C(=O)NO)cc1` (stereo not shown) [Example 41, 2-(4-But-2-ynyloxy-benzenesulfonyl)-1,2,3,4-tetrahydro-isoquinoline-3-carboxylic acid hydroxyamide], under setting [1], the inhibition at 3 µM was found to be 93%.

As for `C#CCOc1ccc(C(NS(=O)(=O)c2ccc(OCC#CC)cc2)C(=O)NO)cc1` (stereo not shown) [Example 177, 2-({[4-(2-Butynyloxy)phenyl]sulfonyl}amino)-N-hydroxy-2-[4-(2-propynyloxy)phenyl]acetamide], the inhibition at 3 µM under setting [1] turned out to be 64%.

For `CC#CCOc1ccc(S(=O)(=O)N2CCN(C(=O)CNC(=O)OC(C)(C)C)CC2C(=O)NO)cc1` (stereo not shown) [Example 229, {2-[4-(4-But-2-ynyloxy-bemenesulfonyl)-3-hydroxycarbamoyl-piperazin-1-yl]-2-oxo-ethyl}-carbamic acid tert-butyl ester], the inhibition at 3 µM under setting [1] is 85%.

Turning to `CC#CCOc1ccc(S(=O)(=O)N(CC(C)C)C(C(=O)NO)C(C)C)cc1` (stereo not shown) [Example 113, 2-[(4-But-2-ynyloxy-benzenesulfonyl)-isobutyl-amino]-N-hydroxy-3-methyl-butyramide], under setting [1], the inhibition at 3 µM amounted to 0%.

`CC(=O)OCCCCC#CCOc1ccc(S(=O)(=O)N2CCSC(C)(C)[C@@H]2C(=O)NO)cc1` [Example 268, 7-[4-({(3S)-3-[(Hydroxyamino)carbonyl]-2,2-dimethylthiomorpholinyl}sulfonyl)phenoxy]-5-heptynyl acetate]: the inhibition at 3 µM under setting [1] was 76%.

On to `CC#CCOc1ccc(S(=O)(=O)N2CCN(C(=O)C(C)(CO)CO)CC2C(=O)NO)cc1` (stereo not shown) [Example 232, 1-{[4-(2-Butynyloxy)phenyl]sulfonyl}-N-hydroxy-4-[3-hydroxy-2-(hydroxymethyl)-2-methylpropanoyl]-2-piperazinecarboxamide], for which the inhibition at 3 µM under setting [1] turned out to be 72%.

With `CC#CCOc1ccc(S(=O)(=O)N2C=CSC(C)(C)[C@@H]2C(=O)NO)cc1` [Example 379, (3S)-4-{[4-(2-Butynyloxy)phenyl]sulfonyl}-N-hydroxy-2,2-dimethyl-3,4-dihydro-2H-1,4-thiazine-3-carboxamide], under setting [2], the inhibition at 3 µM came to 85%.

As to `CC1(C)SCCN(S(=O)(=O)c2ccc(OCC#CCF)cc2)[C@H]1C(=O)NO` [Example 264, (3S)-4-({4-[(4-Fluoro-2-butynyl)oxy]phenyl}sulfonyl)-N-hydroxy-2,2-dimethyl-3-thiomorpholine carboxamide], the inhibition at 3 µM under setting [1] turned out to be 94%.

As to `CC(C)(C)OC(=O)NCCCC#CCOc1ccc(S(=O)(=O)N2CCSC(C)(C)[C@@H]2C(=O)NO)cc1` [Example 250, tert-Butyl 6-[4-({(3S)-3-[(hydroxyamino)carbonyl]-2,2-dimethylthiomorpholinyl}sulfonyl)phenoxy]-4-hexynylcarbamate], under setting [1], the inhibition at 3 µM amounted to 27%.

For the compound `CC#CCOc1ccc(S(=O)(=O)N2CCN(C(=O)CC)CC2C(=O)NO)cc1` (stereo not shown) [Example 225, 1-(4-But-2-ynyloxy-benzenesulfonyl)-4-propionyl-piperazine-2-carboxylic acid hydroxyamide], the inhibition at 3 µM under setting [1] stood at 76%.

With `CC#CCOc1ccc(S(=O)(=O)N(C)C(C(=O)NO)c2ccc(OCCCNC(C)=O)cc2)cc1` (stereo not shown) [Example 194, 2-{4-[3-(Acetylamino)propoxy]phenyl}-2-[{[4-(2-butynyloxy)phenyl]sulfonyl}(methyl)amino]-N-hydroxyacetamide], the inhibition at 3 µM under setting [1] came to 94%.

With `CC#CCOc1ccc(S(=O)(=O)N2[C@@H](C(=O)NO)C(C)(C)SC[C@@H]2C)cc1` [Example 270, (3S,5S)-4-{[4-(2-Butynyloxy)phenyl]sulfonyl}-N-hydroxy-2,2,5-trimethyl-3-thiomorpholinecarboxamide], the inhibition at 3 µM under setting [2] worked out at 62%.

As for `CC#CCOc1ccc(S(=O)(=O)N(C)[C@@H](C(=O)NO)c2ccc(O[C@H]3CCNC3)cc2)cc1` [Example 190, (2R)-2-[{[4-(2-Butynyloxy)phenyl]sulfonyl}(methyl)amino]-N-hydroxy-2-{4-[(3S)-pyrrolidinyloxy]phenyl}ethanamide], the inhibition at 3 µM under setting [1] was found to be 94%.

Consider `CC1(C)SCCN(S(=O)(=O)c2ccc(OCC#CCOCc3ccccc3)cc2)C1C(=O)NO` (stereo not shown) [Example 247, 4-[(4-{[4-(Benzyloxy)-2-butynyl]oxy}phenyl)sulfonyl]-N-hydroxy-2,2-dimethyl-3-thiomorpholine carboxamide], for which the inhibition at 3 µM under setting [1] amounted to 57%.

As for `CC#CCOc1ccc(S(=O)(=O)N2CCNCCC2C(=O)NO)cc1` (stereo not shown) [Example 292, 4-{[4-(2-Butynyloxy)phenyl]sulfonyl}-N-hydroxy-1,4-diazepane-5-carboxamide], under setting [2], the inhibition at 3 µM is 83%.

For `CC#CCOc1ccc(S(=O)(=O)N(C)C(C(=O)NO)c2ccc(OCCN(C)C(=O)OC(C)(C)C)cc2)cc1` (stereo not shown) [Example 191], the inhibition at 3 µM under setting [1] turned out to be 90%.

With `CC#CCOc1ccc(S(=O)(=O)N(C)CC(=O)NO)cn1` [Example 131, 2-[(6-But-2-ynyloxy-pyridine-3-sulfonyl)-methyl-amino]-N-hydroxy-acetamide], the inhibition at 3 µM under setting [1] turned out to be 18%.

For `CC#CCOc1ccc(S(=O)(=O)N(C)C(C(=O)NO)C(C)(C)SCCC)cc1` (stereo not shown) [Example 151, 2-[(4-But-2-ynyloxy-benenesulfonyl)-methyl-amino]-N-hydroxy-3-methyl-3-propylsulfanyl-butyramide], the inhibition at 3 µM under setting [1] came to 82%.

Turning to `CC#CCOc1ccc(S(=O)(=O)N2CCCSC[C@@H]2C(=O)NO)cc1` [Example 174], the inhibition at 3 µM under setting [2] turned out to be 80%.

With `CC1(C)SCCN(S(=O)(=O)c2ccc(OCC#CCCOC3CCCCO3)cc2)C1C(=O)NO` (stereo not shown) [Example 243, N-Hydroxy-2,2-dimethyl-4-[(4-{[5-(tetrahydro-2H-pyran-2-yloxy)-2-pentynyl]oxy}phenyl)sulfonyl]-3-thiomorpholine carboxamide], the inhibition at 3 µM under setting [1] amounted to 52%.
